Measurements taken from PMC10287695, “Non-covalent inhibitors of thioredoxin glutathione reductase with schistosomicidal activity in vivo” (Nature Communications, 2023).
Like-named read-outs stand apart in the source and are kept apart here. Marks after values point to notes of the source that are not given here.

Columns and labels:
[1] = target: T1, S. mansoni TGR (Schistosoma mansoni, UniProt Q962Y6); assay: S. mansoni TGR enzyme inhibition (DTNB reduction); type: biochemical; conditions: for IC50 / S. mansoni TGR IC50: 15 min preincubation (enzyme + 100 µM NADPH + compound)
T1 construct: made in house
T1 sequence (Q962Y6 1-598): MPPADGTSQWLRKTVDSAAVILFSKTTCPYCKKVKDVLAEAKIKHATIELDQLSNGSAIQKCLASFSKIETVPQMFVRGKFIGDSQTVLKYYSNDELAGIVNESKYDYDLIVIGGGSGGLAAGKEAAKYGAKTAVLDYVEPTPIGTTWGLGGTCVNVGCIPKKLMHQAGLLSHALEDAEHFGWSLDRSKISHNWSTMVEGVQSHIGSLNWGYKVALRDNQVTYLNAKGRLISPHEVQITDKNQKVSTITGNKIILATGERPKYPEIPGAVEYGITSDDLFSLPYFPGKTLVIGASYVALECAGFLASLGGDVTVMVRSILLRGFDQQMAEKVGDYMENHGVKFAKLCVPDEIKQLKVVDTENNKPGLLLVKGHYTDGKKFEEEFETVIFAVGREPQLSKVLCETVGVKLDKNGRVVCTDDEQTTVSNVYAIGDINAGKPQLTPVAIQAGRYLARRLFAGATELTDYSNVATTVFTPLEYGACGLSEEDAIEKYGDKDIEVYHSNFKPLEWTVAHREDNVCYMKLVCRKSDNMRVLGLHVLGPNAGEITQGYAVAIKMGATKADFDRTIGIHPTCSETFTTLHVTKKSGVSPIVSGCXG

[2] = system: S. mansoni adult worms; assay: GSH/GSSG ratio in ex vivo adult worms; type: cell-based; conditions: for Decrease (%) in GSH/GSSG ratio: adult worms, 3 h exposure to compounds at 50 μM
Procedure: We assessed GSH/GSSG levels experimentally by treating S. mansoni adult worms with 50 µM of compounds, or respective controls 5 µM Auranofin, 50 µM PZQ or 50 µM MZM and 0.01% DMSO for 3 h. Worm homogenate was prepared by washing three times with PBS to remove residual compounds and ten volumes of ice cold 5% sulfosalicylic acid was added. Worms were manually homogenized on ice using VWR Pellet Mixer Adaptor. The worm suspension was centrifuged at 14000 × g, 4 °C for 10 min and the acid supernatants transferred. An equal volume of ice-cold neutralization buffer (500 mM HEPES, pH 8.0) was added to the acid supernatants.
GSH/GSSG assay was performed by diluting the acid supernatant (5-fold) with ice-cold dilution buffer (250 mM HEPES, pH 7.5). Using white opaque luminescence plate on ice, 25 µl of the diluted worm acid supernatant was added each well in triplicates. Total glutathione lysis reagent and GSSG lysis reagent, which contains alkylating agent N-ethylmaleimide (25 mM) were prepared following manufactures protocol and added to respective wells along with blank for background. Total glutathione lysis reagent or oxidized glutathione lysis reagent (25 µl) was added to respective wells containing worm acid supernatants and the plate was shaken for 5 min. Luciferin generation reagent (LGR) (50 µl) was added to all wells, briefly shaken and incubated at room temperature for 30 min. Luciferin detection reagent (LDR) (100 µl) was added to all wells, briefly shaken and incubated for 15 min at room temperature and the luminescence measured using microplate imager (BioTek Cytation3). GSH/GSSH ratio for DMSO control and compounds were calculated using (Net DMSO total glutathione RFU) – (Net DMSO GSSG RFU)/ (Net DMSO GSSG RFU)/2 and (Net inhibitor total glutathione RFU) – (Net inhibitor GSSG RFU)/ (Net inhibitor GSSG RFU)/2 respectively.

[3] = system: S. mansoni adult worms; assay: Schistosomicidal activity ex vivo, adult worms (Cell Titer Glo), alone or with channel blockers; type: cell-based; conditions: for LD50 ex vivo S. mansoni adult: 24 h exposure, compound alone
Procedure: Three-week old, female Swiss-Webster mice obtained from the Charles River were housed in the Comparative Research Center of Rush University Medical Center. Mice were infected by percutaneous tail exposure to about 200 S. mansoni or 50 S. japonicum cercaria for adult worms and about 1000 cercaria for juvenile S. mansoni worms through natural transdermal penetration of the cercariae for 1 h[81].
DMSO formulated compounds were diluted with phenol red free M199 medium or RPMI medium for NTS or juvenile and adult worms, respectively, at <1% DMSO final concentrations. NTS, juvenile and adult worms from overnight cultures were tested against compounds in triplicate. Controls were treated with DMSO alone or 5 µM AF as a positive control in appropriate medium. […] Schistosome viabilities in the presence of the compounds were assessed using this formula: % Viability = Averages of Test / Averages of DMSO Control x 100.

[4] = system: Vero cells; assay: Cytotoxicity in mammalian cells (Cell Titer Glo); type: cell-based
Procedure: Following overnight incubation, formulated DMSO-compound stock solutions were diluted with DMEM at <1% DMSO final concentrations. […] Vero cells treated similarly with different concentrations of PZQ, MZM and AF (Cayman Chemicals) were used as positive controls.

[5] = TGR, 15 minutes pre-incubation, compound 15 µM
[6] = TGR, 15 minutes pre-incubation, compound 30 µM
[7] = TGR, 15 minutes pre-incubation, compound 66.7 µM
[8] = TGR, 6 hours pre-incubation, compound 15 µM
[9] = TGR, 6 hours pre-incubation, compound 30 µM
[10] = TGR, 6 hours pre-incubation, compound 66.7 µM
[11] = 6 h preincubation (enzyme + 100 µM NADPH + compound)
[12] = adult worms ex vivo, 1 hr, relative to 0hr

Structure (SMILES): CC(=O)OC[C@H]1O[C@@H]([S-])[C@H](OC(C)=O)[C@@H](OC(C)=O)[C@@H]1OC(C)=O.CCP(CC)CC.[Au+] [AF, auranofin, reference compound]
- IC50 [1]: 0.007 µM
- Ratio GSH/GSSG ([2]; 1 hr, first data set (r117-133), baseline 55.82): 8.34
- % Ratio GSH/GSSG ([2]; 1 hr, first data set (r117-133), baseline = 100): 14.9481%
- Ratio GSH/GSSG ([2]; 3 hr, first data set (r117-133), baseline 55.82): 4.85
- % Ratio GSH/GSSG ([2]; 3 hr, first data set (r117-133), baseline = 100): 8.693%
- Decrease (%) in GSH/GSSG ratio [2]: 91%
- LD50 ex vivo S. mansoni adult [3]: 1.1 ± 0.04 µM
- % viability ([3]; S. mansoni adult worms, Conc. 0.5 µM): 85.422%
- % viability ([3]; S. mansoni adult worms, Conc. 1 µM): 43.1217%
- % viability ([3]; S. mansoni adult worms, Conc. 2 µM): 23.1816%
- % viability ([3]; S. mansoni adult worms, Conc. 5 µM): 3.259%
- % viability ([4]; 0.5 µM): 57.3284%
- % viability ([4]; 1 µM): 33.3378%
- % viability ([4]; 5 µM): 0.2783%
- % viability ([4]; 10 µM): 0.2356%
- % viability ([4]; 20 µM): 0.164%
- % viability ([4]; 30 µM): 0.07463%
- LD50 ex vivo VERO ([4]; 24-hour exposure): 0.59 ± 0.11 µM

Structure (SMILES): Cc1oc(-c2ccccc2)nc1CN[C@@H]1C[C@@H]2C[C@H]([C@H]1C)C2(C)C [C3]
- % inhibition [1, 5]: 3.671%
- % inhibition [1, 6]: 7.41%
- % inhibition [1, 7]: 17.804%
- % inhibition [1, 8]: 23.6178%
- % inhibition [1, 9]: 33.5098%
- % inhibition [1, 10]: 42.7576%
- % viability ([4]; Vero cells, Conc. 5 µM): 99.3244%
- % viability ([4]; Vero cells, Conc. 10 µM): 93.7147%
- % viability ([4]; Vero cells, Conc. 25 µM): 77.3582%
- % viability ([4]; Vero cells, Conc. 35 µM): 52.4878%
- % viability ([4]; Vero cells, Conc. 50 µM): 28.6792%

Structure (SMILES): Cc1oc(-c2ccc3ccccc3c2)nc1CNC1CCCCCC1 [C5]
- % inhibition [1, 5]: 26.4295%
- % inhibition [1, 6]: 32.2766%
- % inhibition [1, 7]: 38.9031%
- % inhibition [1, 8]: 38.3649%
- % inhibition [1, 9]: 50.2366%
- % inhibition [1, 10]: 73.0458%
- % viability ([4]; Vero cells, Conc. 5 µM): 99.0699%
- % viability ([4]; Vero cells, Conc. 10 µM): 99.036%
- % viability ([4]; Vero cells, Conc. 25 µM): 93.1095%
- % viability ([4]; Vero cells, Conc. 35 µM): 87.9829%
- % viability ([4]; Vero cells, Conc. 50 µM): 82.6807%

Structure (SMILES): C[C@@H]1[C@H]2C[C@@H](C[C@H]1NCc1nc3ccccc3n1C)C2(C)C [C12]
- TGR % inhibition ([1]; 15 minutes pre-incubation, 15 µM): 0.03253%
- TGR % inhibition ([1]; 15 minutes pre-incubation, 30 µM): 0.1888%
- TGR % inhibition ([1]; 15 minutes pre-incubation, 66.7 µM): 0.4169%
- TGR % inhibition ([1]; 6 hours pre-incubation, 15 µM): 0.1402%
- TGR % inhibition ([1]; 6 hours pre-incubation, 30 µM): 1.567%
- TGR % inhibition ([1]; 6 hours pre-incubation, 66.7 µM): 2.052%

Structure (SMILES): Cc1oc(-c2ccc3c(c2)OCO3)nc1CN[C@@H]1C[C@@H]2C[C@H]([C@H]1C)C2(C)C [Compound 1]
- IC50 [1]: > 66.7 µM
- inhibition at 66.7 µM ([1]; 6 h preincubation (enzyme + 100 µM NADPH + compound), read-out: S. mansoni TGR inhibition (%) at 66.7 µM): 42.1%
- inhibition at 15 µM ([1]; TGR, 15 minutes pre-incubation, compound 15 µM, read-out: % inhibition): 5.86%
- inhibition at 30 µM ([1]; TGR, 15 minutes pre-incubation, compound 30 µM, read-out: % inhibition): 10%
- inhibition at 15 µM ([1]; TGR, 6 hours pre-incubation, compound 15 µM, read-out: % inhibition): 7.78%
- inhibition at 30 µM ([1]; TGR, 6 hours pre-incubation, compound 30 µM, read-out: % inhibition): 21.1%
- Reduction (%) in GSH/GSSG ratio ([2]; 1 hr, third data set): 50.9919%
- Ratio GSH/GSSG ([2]; 1 hr, third data set (r147-159), 0hr 72.45): 35.51
- % Ratio GSH/GSSG ([2]; 1 hr, third data set (r147-159), 0hr = 100): 49.0081%
- Reduction (%) in GSH/GSSG ratio ([2]; 1 hr, third data set, (values given as fraction)): 0.5099%
- Reduction (%) in GSH/GSSG ratio ([2]; 3 hr, third data set): 78.3034%
- Ratio GSH/GSSG ([2]; 3 hr, third data set (r147-159), 0hr 72.45): 15.72
- % Ratio GSH/GSSG ([2]; 3 hr, third data set (r147-159), 0hr = 100): 21.6966%
- Reduction (%) in GSH/GSSG ratio ([2]; 3 hr, third data set, (values given as fraction)): 0.78%
- Decrease (%) in GSH/GSSG ratio [2]: 75%
- LD50 ex vivo S. mansoni adult [3]: 12.3 ± 1.30 µM
- viability at 5 µM ([3]; Schistosoma mansoni, S. mansoni adult worms, Conc. 5 µM, read-out: % viability): 77.3%
- viability at 10 µM ([3]; Schistosoma mansoni, S. mansoni adult worms, Conc. 10 µM, read-out: % viability): 58.4%
- viability at 25 µM ([3]; Schistosoma mansoni, S. mansoni adult worms, Conc. 25 µM, read-out: % viability): 0.888%
- viability at 35 µM ([3]; Schistosoma mansoni, S. mansoni adult worms, Conc. 35 µM): 0.238%
- LD50 ex vivo VERO ([4]; African green monkey, 24 h): >75.5^a µM
- EC50 ([4]; Chlorocebus sabaeus, Vero, estimate from raw data, read-out: EC50 viability of Vero cells): > 200 µM

Structure (SMILES): C[C@@H]1[C@H]2C[C@@H](C[C@H]1NCc1cc(-c3ccccc3)[nH]n1)C2(C)C [Compound 11]
- S. mansoni TGR IC50 [1]: n.i.^e
- inhibition at 15 µM ([1]; 15 minutes pre-incubation, 15 µM, read-out: TGR % inhibition): -0.793%
- inhibition at 30 µM ([1]; 15 minutes pre-incubation, 30 µM, read-out: TGR % inhibition): 0.411%
- inhibition at 66.7 µM ([1]; 15 minutes pre-incubation, 66.7 µM, read-out: TGR % inhibition): 1.81%
- inhibition at 15 µM ([1]; 6 hours pre-incubation, 15 µM, read-out: TGR % inhibition): 0.749%
- inhibition at 30 µM ([1]; 6 hours pre-incubation, 30 µM, read-out: TGR % inhibition): 1.2%
- inhibition at 66.7 µM ([1]; 6 hours pre-incubation, 66.7 µM, read-out: TGR % inhibition): 5.65%
- S. mansoni TGR inhibition (%) at 66.7 µM [1, 11]: n.i.^e
- % Ratio GSH/GSSG ([2]; adult worms ex vivo, 1 hr): 59.9789%
- Reduction (%) in GSH/GSSG ratio [2, 12]: 1.477%
- Reduction (%) in GSH/GSSG ratio ([2]; adult worms ex vivo, 1 hr, relative to 0hr, values given as fraction): 0.01477%
- % Ratio GSH/GSSG ([2]; adult worms ex vivo, 3 hr): 59.8685%
- Reduction (%) in GSH/GSSG ratio ([2]; adult worms ex vivo, 3 hr, relative to 0hr): 1.659%
- Reduction (%) in GSH/GSSG ratio ([2]; adult worms ex vivo, 3 hr, relative to 0hr, values given as fraction): 0.01659%
- viability at 5 µM ([3]; Schistosoma mansoni, S. mansoni adult worms, 5 µM, relative to Worm + RPMI control, read-out: % viability): 97.5%
- viability at 15 µM ([3]; Schistosoma mansoni, S. mansoni adult worms, 15 µM, relative to Worm + RPMI control, read-out: % viability): 93.7%
- viability at 30 µM ([3]; Schistosoma mansoni, S. mansoni adult worms, 30 µM, relative to Worm + RPMI control, read-out: % viability): 89.4%
- viability at 50 µM ([3]; Schistosoma mansoni, S. mansoni adult worms, 50 µM, relative to Worm + RPMI control, read-out: % viability): 88.5%

Structure (SMILES): C[C@@H]1[C@H]2C[C@@H](C[C@H]1NCc1nc3ccccc3n1C)C2(C)C [Compound 12]
- S. mansoni TGR IC50 [1]: n.i.^e
- S. mansoni TGR inhibition (%) at 66.7 µM [1, 11]: n.i.^e
- % Ratio GSH/GSSG ([2]; adult worms ex vivo, 1 hr): 59.2209%
- Reduction (%) in GSH/GSSG ratio [2, 12]: 1.36%
- % Ratio GSH/GSSG ([2]; adult worms ex vivo, 3 hr): 58.1972%
- LD50 ex vivo S. mansoni adult [3]: >50^a µM
